The test system of data set [1] is MCF-7/Adr cells. The data set is described as follows: Sensitisation of MCF-7/Adr cells against doxorubicin (preliminary study). The settings on record: unpublished preliminary study. In kind it is cell-based, human.
For data set [2], the system named is MCF-7/Adr cells. Kind of data set: [3H]Vinblastine accumulation in MCF-7/Adr cells. As to conditions: 300 nM, 1 h, 37 C; control cells 1280 d.p.m. In kind it is cell-based, human. From the text:
(§1) In the present study these five compounds are compared as modifiers of P-gp-mediated MDR. […] The overall objective of the work was to explore the mechanisms of cytostasis and resistance reversal caused by kinase inhibitors in a MDR cell line, with the ultimate aim to assess the potential use of such compounds in cancer therapy. […] [3H]Vinblastine (11 or 21 Ci mmol -') was obtained from Amersham (Amersham, UK). […] Cell culture medium and serum were purchased from Gibco BRL (Paisley, UK). Stock solutions of drugs were prepared in dimethyl sulphoxide (DMSO) and stored at -20?C. […] Cultures of both cell types contained L-glutamine (2 mM), penicillin (100 IU ml-') and streptomy- cin (100 ug ml-1). Cells were subcultured when they were confluent. […] After a 4 h attachment period compounds at various concentrations were added. […] Cells were trypsinised and counted using a model ZM Coulter counter. Incubations were conducted in duplicate. Growth inhibition was expressed as percentage of cell number in drug-free control incubates. […] IC50 values were derived from three separate experiments each performed in duplicate. The resistance ratios shown in Table I are the ratios of IC50 in MCF-7/Adr over IC50 in MCF-7, or IC50 in MCF-7/Adr in the absence of reserpine over IC50 in its presence. Flow cytometric analysis of R123 accumulation and efflux Cells were maintained in medium without phenol red but with FCS (10%) and gentamicin (50 µg ml-'). […] Cells were detached by treatment with trypsin-EDTA, washed with ice-cold PBS and resuspended in PBS (1 ml), to which propidium iodide (10 Mg) was added. […] Single- and multi-parameter data of forward angle scatter, side scatter, R123 fluorescence and propidium iodide fluorescence were collected for 104 cells. Fluorescence was measured on a four-decade log scale. The data were analysed using Lysis 2 software. Only R123 fluorescence of viable, propidium iodide-excluding cells was analysed. [/II] Vinblastine accumndation ini cells MCF-7 and MCF-7jAdr cells were grown to confluency in 12-well plates. […] The experiment was started by addition of [3H]vinblastine (1 -2 nM) to the incubate. […] Cells were incubated at 37'C for I h, after which the medium was aspirated and replaced with scintillant (1 ml). […] For each membrane preparation 109 cells were homogenised in 40 ml ice-cold Tris buffer [Tris-HC1 50 mM, phenylmethylsulphonyl fluoride (PMSF) 0.1 mM, pH 7.4] to which 0.1 mM EDTA had been added. The homogenate was centrifuged at 3500 g for 10 min; the supernatant was recentrifuged at 40 000 g for 20 min, the resultant pellet was resuspended in Tris buffer (10 ml). […] Filters were dried and retained radioactivity was quantitated by liquid scintillation counting.

Data set [3] concerns MCF-7/Adr cells. The data set is described as follows: Flow cytometric analysis of R123 accumulation and efflux. On Effect on R123 efflux (Table III summary): key: +: potent effect; (+): weak effect; -: no effect. In kind it is cell-based, human. As to conditions: for Increase over control levels in R123 accumulation: 20 min together with R123; for Effect on R123 accumulation or efflux: 640 nM.
From the text: as §1, with “Filters were washed twice with 5 ml of ice-cold Tris-HCI containing magnesium chloride (both 20 mM). Assays were performed in duplicate. Filters were dried and” for “Filters were dried and”
In general terms: In flow cytometry, cells or beads pass a laser one at a time.

In another data set the target is P-gp (Homo sapiens, UniProt P08183). The data set is described as follows: Inhibition of binding of [3H]vinblastine to P-gp in MCF-7/Adr membranes.
Chain of P-gp (P08183 whole entry): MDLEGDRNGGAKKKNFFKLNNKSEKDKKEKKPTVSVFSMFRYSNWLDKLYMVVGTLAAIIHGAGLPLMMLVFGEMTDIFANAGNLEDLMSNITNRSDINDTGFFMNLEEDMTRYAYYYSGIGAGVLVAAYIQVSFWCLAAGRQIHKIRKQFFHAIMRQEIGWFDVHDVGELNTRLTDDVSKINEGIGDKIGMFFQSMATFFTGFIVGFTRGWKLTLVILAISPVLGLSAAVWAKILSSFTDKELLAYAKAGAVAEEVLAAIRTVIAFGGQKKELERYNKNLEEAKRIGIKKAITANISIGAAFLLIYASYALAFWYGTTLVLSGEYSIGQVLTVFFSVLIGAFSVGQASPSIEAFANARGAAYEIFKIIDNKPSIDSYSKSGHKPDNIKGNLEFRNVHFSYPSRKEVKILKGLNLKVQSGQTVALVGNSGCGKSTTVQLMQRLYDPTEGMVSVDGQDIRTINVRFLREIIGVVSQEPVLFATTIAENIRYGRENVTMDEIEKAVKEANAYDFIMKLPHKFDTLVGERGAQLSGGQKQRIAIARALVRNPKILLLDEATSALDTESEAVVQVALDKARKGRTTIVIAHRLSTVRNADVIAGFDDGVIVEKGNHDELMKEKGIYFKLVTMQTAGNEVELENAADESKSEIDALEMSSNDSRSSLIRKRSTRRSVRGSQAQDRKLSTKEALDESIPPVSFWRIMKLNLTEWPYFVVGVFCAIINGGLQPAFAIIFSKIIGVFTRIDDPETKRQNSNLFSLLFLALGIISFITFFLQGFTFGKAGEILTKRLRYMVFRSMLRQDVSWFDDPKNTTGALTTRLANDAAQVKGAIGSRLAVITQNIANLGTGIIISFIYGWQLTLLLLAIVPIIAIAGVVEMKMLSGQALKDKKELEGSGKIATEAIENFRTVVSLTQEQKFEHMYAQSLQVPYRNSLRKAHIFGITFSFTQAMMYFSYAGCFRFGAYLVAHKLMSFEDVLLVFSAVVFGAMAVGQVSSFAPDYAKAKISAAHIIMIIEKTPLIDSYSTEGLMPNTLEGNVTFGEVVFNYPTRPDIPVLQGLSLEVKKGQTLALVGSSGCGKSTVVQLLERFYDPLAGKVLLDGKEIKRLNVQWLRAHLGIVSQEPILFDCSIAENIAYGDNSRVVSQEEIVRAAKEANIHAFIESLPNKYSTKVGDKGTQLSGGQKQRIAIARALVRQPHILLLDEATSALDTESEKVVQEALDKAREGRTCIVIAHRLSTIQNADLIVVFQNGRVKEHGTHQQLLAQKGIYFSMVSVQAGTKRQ
From the text: as §1, with “Filters were washed twice with 5 ml of ice-cold Tris-HCI containing magnesium chloride (both 20 mM). Assays were performed in duplicate. Filters were dried and” for “Filters were dried and”

In the next data set the test system is MCF-7 cells. Kind of data set: Inhibition of growth of MCF-7 wild-type cells (4 days, Coulter count). In kind it is cell-based, human. As to conditions: for IC50: 4 days incubation, mean of three experiments, read-out: IC50 MCF-7 (concentration which caused inhibition of cell growth by 50%).
From the text: as §1

A further data set has as its system PKC. As to conditions: cited from earlier work; for PKC inhibition, potency (Table III summary) / IC50: ref Courage et al., 1995; for IC50: read-out: IC50 for enzyme inhibition, PKC derived from the cytosol of MCF-7 cells.
The test system of data set [4] is MCF-7/Adr cells. The data set is described as follows: Inhibition of growth of multidrug-resistant MCF-7/Adr cells, without or with reserpine. On MDR reversal by reserpine (Table III summary): key: +: potent effect; (+): weak effect; -: no effect. On Resistance in MCF-7/Adr cells (Table III summary): key: +: potent effect; (+): weak effect; -: no effect. In kind it is cell-based, human. As to conditions: for IC50: 4 days incubation, without reserpine; for Ratio (-reserpine / +reserpine): IC50 in MCF-7/Adr in the absence of reserpine over IC50 in its presence; for Ratio (MCF-7/Adr / MCF-7), resistance ratio: IC50 in MCF-7/Adr over IC50 in MCF-7.

Where [5] appears, read: read-out: Ki, inhibition of binding of [3H]vinblastine to P-gp, MCF-7/Adr membranes, 90 min, 23 C, mean, s.e.m.
Setting [6] is: Homo sapiens, NCI/ADR-RES, 96 h.

Entries after “also recorded” stand apart in the source; their conditions may differ. Where two headings read alike, the source gives them in different places.
Wherever PKC inhibition, potency (Table III summary) is given: key: +: potent effect; (+): weak effect; -: no effect.
Wherever PKC inhibition, specificity (Table III summary) is given: key: +: potent effect; (+): weak effect; -: no effect.

On to `CO[C@@H]1[C@H](N(C)C(=O)c2ccccc2)C[C@H]2O[C@]1(C)n1c3ccccc3c3c4c(c5c6ccccc6n2c5c31)C(=O)NC4` [CGP 41251, 4'-N-benzoyl staurosporine], for which the “Increase of sensitivity of cells towards doxorubicin (factor)” value in the data set with MCF-7/Adr cells [1] (80 nM) was 2. Moreover, the “[3H]Vinblastine accumulation” value in the data set with MCF-7/Adr cells [2] is on record as 3200 d.p.m. Moreover, in the data set with MCF-7/Adr cells [3], the “Effect on R123 efflux (Table III summary)” value (“Effect on R123 efflux” below) is listed as “+”. In the data set with MCF-7/Adr cells [3] (80 nM, 20 min after loading with and removal of the dye), the “Increase over control levels in R123 retention (efflux)” value is 150%. The “Increase over control levels in R123 accumulation” value in the data set with MCF-7/Adr cells [3] (80 nM) was found to be 47%. On P-gp, the “Inhibition of [3H]vinblastine binding (Table III summary)” value (“Inhibition of [3H]vinblastine binding” for short) was “+” and the Ki – broadly, a measure of affinity in units of concentration, obtained from inhibition or displacement – turned out to be 32 nM.

Regarding `CN(C)CCCn1cc(C2=C(c3c[nH]c4ccccc34)C(=O)NC2=O)c2ccccc21` [GF 109203X], the “[3H]Vinblastine accumulation” value with MCF-7/Adr cells [2] is given as 1790 d.p.m. In addition, the “Effect on R123 accumulation or efflux” value in the data set with MCF-7/Adr cells [3] is “inactive; also recorded: did not alter”. In addition, the IC50 in the data set on MCF-7 cells amounted to 7300 nM. Also, in the data set on PKC, the “PKC inhibition, specificity (Table III summary)” value (“PKC inhibition, specificity” for short) was “+” and the “PKC inhibition, potency (Table III summary)” value (“PKC inhibition, potency” below) is on record as “+”. In the data set with MCF-7/Adr cells [4], the IC50 worked out at 8800 nM; the “Ratio (-reserpine / +reserpine)” value was found to be 1.5; the “Ratio (MCF-7/Adr / MCF-7), resistance ratio” value came out at 1.2. Besides, on P-gp (setting [5]), the Ki was determined as 780 nM.

On to `Cn1cc(C2=C(c3cn(CCCSC(=N)N)c4ccccc34)C(=O)NC2=O)c2ccccc21` [RO 31 8220], for which, in the data set on MCF-7/Adr cells [1] (2 μM), the “Effect on sensitivity of cells towards doxorubicin” value is recorded as “no effect”. Further, the “[3H]Vinblastine accumulation” value in the data set on MCF-7/Adr cells [2] is “no effect”. Further, the “Effect on R123 accumulation or efflux” value in the data set on MCF-7/Adr cells [3] is “inactive; also recorded: did not alter”. In the data set with MCF-7 cells, the IC50 was determined as 897 nM. Besides, in the data set on MCF-7 cells (result not shown), the “Effect of reserpine on sensitivity of wild-type MCF-7 cells” value is recorded as “did not affect”. For the same compound, in the data set with PKC, the “PKC inhibition, specificity” value is reported as “+”; the “PKC inhibition, potency” value is on record as “+”; the IC50 is 48 nM. For the same compound, in the data set on MCF-7/Adr cells [4], the “MDR reversal by reserpine (Table III summary)” value is “+”, the “Resistance in MCF-7/Adr cells (Table III summary)” value is reported as “+”, the IC50 was determined as 11300 nM and the “Ratio (-reserpine / +reserpine)” value is recorded as 6.4. The “Ratio (MCF-7/Adr / MCF-7), resistance ratio” value in the data set on MCF-7/Adr cells [4] is recorded as 12.6. For the same compound, the “Inhibition of [3H]vinblastine binding” value at P-gp is recorded as “(+)”. For the same compound, the inhibition constant Ki at P-gp (setting [5]) stood at 210 nM.

For the compound `CN[C@@H]1C[C@H]2O[C@@](C)([C@@H]1OC)n1c3ccccc3c3c4c(c5c6ccccc6n2c5c31)C(=O)N[C@H]4O` [UCN-01, 7-hydroxystaurosporine], in the data set on MCF-7/Adr cells [2], the “[3H]Vinblastine accumulation” value came out at 2110 d.p.m. In addition, in the data set on MCF-7/Adr cells [3], the “Effect on R123 efflux” value is “(+)”. For the same compound, in the data set with MCF-7/Adr cells [3] (tested 10-640 nM), the “Concentration with significant effect on R123 accumulation” value is listed as 80 nM and the “Concentration with significant effect on dye efflux” value is 320 nM. In addition, the IC50 in the data set on MCF-7 cells stood at 17.5 nM. Further, in the data set on PKC, the “PKC inhibition, specificity” value is “+” and the “PKC inhibition, potency” value is “+”. In addition, in the data set on MCF-7/Adr cells [4], the “MDR reversal by reserpine (Table III summary)” value is listed as “+”, the “Resistance in MCF-7/Adr cells (Table III summary)” value is listed as “+”, the IC50 worked out at 123 nM and the “Ratio (-reserpine / +reserpine)” value is given as 3.5. For the same compound, in the data set with MCF-7/Adr cells [4], the “Ratio (MCF-7/Adr / MCF-7), resistance ratio” value is 7.0. Further, the “Inhibition of [3H]vinblastine binding” value on P-gp is “(+)”. Besides, the Ki on P-gp (setting [5]) is 293 nM.

`COc1cccc2c1C(=O)c1c(O)c3c(c(O)c1C2=O)C[C@@](O)(C(=O)CO)C[C@@H]3O[C@H]1C[C@H](N)[C@H](O)[C@H](C)O1` [doxorubicin] yielded an IC50 with MCF-7/Adr cells [4] (setting [6]) of 1600 nM. In addition, in the data set with MCF-7/Adr cells [4], the “Ratio (-reserpine / +reserpine)” value came to 16.

As for `COC(=O)[C@H]1[C@H]2C[C@@H]3c4[nH]c5cc(OC)ccc5c4CCN3C[C@H]2C[C@@H](OC(=O)c2cc(OC)c(OC)c(OC)c2)[C@@H]1OC` [reserpine], the Effect on proliferation entry in the data set with MCF-7/Adr cells [4] (reserpine 5 μM) was “did not interfere with proliferation”. Also, in the data set with MCF-7/Adr cells [4] (reserpine 5 μM, preliminary experiments), the “Increase of sensitivity towards doxorubicin” value was determined as 14.3 fold.

On to `CN[C@@H]1C[C@H]2O[C@@](C)([C@@H]1OC)n1c3ccccc3c3c4c(c5c6ccccc6n2c5c31)C(=O)NC4` [staurosporine], for which, in the data set on MCF-7/Adr cells [3], the “Effect on R123 efflux” value is “+”. Moreover, the “Increase over control levels in R123 accumulation” value in the data set with MCF-7/Adr cells [3] (80 nM) was 40%. For the same compound, in the data set with MCF-7/Adr cells [3] (20 min, 0.08 µM), the “Increase over control levels in R123 retention (efflux)” value came out at 75%. Further, the IC50 in the data set on PKC was 16 nM; in the data set on MCF-7/Adr cells [4] (setting [6]), 6.5 nM. For the same compound, on P-gp, the “Inhibition of [3H]vinblastine binding” value is listed as “(+)”. The compound also displayed a Ki on P-gp of 145 nM.
